Source: PubChem BioAssay AID652247 (Sanford-Burnham Center for Chemical Genomics, 2013)
Active and inactive are the calls of the source. The rule behind the calls is not given here.

Target: NEDD8-conjugating enzyme Ubc12 (Homo sapiens) + NEDD8-activating enzyme E1 regulatory subunit (Homo sapiens) (UniProt P61081+Q13564)
Experiment: inhibitors of CUL1 neddylation, potency, dose response, biochemical, TR-FRET (AID 652247)
Settings: in vitro CUL1 neddylation

NEDD8-conjugating enzyme Ubc12 (Homo sapiens) + NEDD8-activating enzyme E1 regulatory subunit (Homo sapiens), sequence (P61081 whole entry, looked up): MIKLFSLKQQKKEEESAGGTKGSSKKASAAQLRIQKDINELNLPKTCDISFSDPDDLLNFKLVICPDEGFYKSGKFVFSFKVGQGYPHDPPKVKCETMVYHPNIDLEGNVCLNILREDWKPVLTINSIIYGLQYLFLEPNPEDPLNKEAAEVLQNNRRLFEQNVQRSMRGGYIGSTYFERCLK
NEDD8-conjugating enzyme Ubc12 (Homo sapiens) + NEDD8-activating enzyme E1 regulatory subunit (Homo sapiens), sequence (Q13564 whole entry, looked up): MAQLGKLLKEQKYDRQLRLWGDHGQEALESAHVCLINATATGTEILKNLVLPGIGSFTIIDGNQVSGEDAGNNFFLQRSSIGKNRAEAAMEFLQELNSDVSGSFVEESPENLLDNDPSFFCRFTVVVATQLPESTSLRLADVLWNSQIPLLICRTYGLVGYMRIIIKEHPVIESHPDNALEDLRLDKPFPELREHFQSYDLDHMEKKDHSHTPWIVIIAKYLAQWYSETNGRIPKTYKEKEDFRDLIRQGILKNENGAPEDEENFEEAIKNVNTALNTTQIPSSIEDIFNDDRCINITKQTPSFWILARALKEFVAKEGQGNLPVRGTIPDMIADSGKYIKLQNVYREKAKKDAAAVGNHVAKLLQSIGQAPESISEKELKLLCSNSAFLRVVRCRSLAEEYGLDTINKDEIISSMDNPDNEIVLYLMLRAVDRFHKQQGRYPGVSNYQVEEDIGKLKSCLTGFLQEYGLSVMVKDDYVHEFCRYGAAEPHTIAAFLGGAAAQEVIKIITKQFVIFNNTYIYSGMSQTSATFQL

| IC50 | SMILES |
| --- | --- |
| inactive | COC(=O)C1=C(C)NC2=C(C(=O)C(C(=O)OC)C(c3ccc(OC)cc3)C2)C1c1ccccn1 (centres undefined) |
| inactive | Cn1c(=O)c(-c2ccccc2)nc2ccccc21 |
| inactive | CC(=O)N1N=C2/C(=C/c3ccccc3)CCCC2C1c1ccccc1 (centres undefined) |
| inactive | CCOC(=O)c1cc2c(=O)n3ccccc3nc2n(C(C)C)c1=NC(=O)c1ccncc1 |
| inactive | O=C(CCc1ccccc1)Nc1nnc(-c2ccccn2)o1 |
| 13.9 µM | O=C(Nc1cccnc1Cl)c1cc(-c2cccc(O)c2)on1 |
| > 100 µM (inactive) | Nc1nnc(-c2cc3ccccc3oc2=O)s1 |
| inactive | COc1ccc2cc(C(=O)N/N=C/c3cc(OC)c(OC)c(OC)c3)[nH]c2c1 |
| 14.4 µM | CCc1ccc(-c2cnc3nc[nH]c(=O)c3n2)cc1 |
| inactive | O=c1[nH]cnc2nc(-c3ccccc3)c(-c3ccccc3)nc12 |
| inactive | CCCc1c(O)c2ccccc2[nH]c1=O |
| inactive | COc1ccc(OC)c(C=NNC(=O)c2ccc(NS(=O)(=O)c3cccs3)cc2)c1 |
| inactive | Cc1ccc(C(=O)N/C(=C\c2cccs2)c2nc3ccccc3[nH]2)cc1 |
| 17.9 µM | Cc1ccc(-n2c3nc(=O)n(C)c(=O)c-3cc3ccccc32)cc1 |
| inactive | CCOC(=O)Cn1nc(/C=C/c2ccccc2)ccc1=O |
| inactive | CN(C)c1ccc(/C=N/NC(=O)CCc2nc3ccccc3[nH]2)cc1 |
| inactive | Cc1cc(C)n2nc(-c3cnn(C)c3C(F)(F)F)cc2n1 |
| inactive | CC1CCN(C(=O)Nc2ccc3nsnc3c2)CC1 |
| inactive | CCOc1ccc(NC(=O)COC(=O)c2ccc3ncsc3c2)cc1OCC |
| inactive | NC(=O)C1CCN(C(=O)c2ccc3nc(-c4ccccc4)c(-c4ccccc4)nc3c2)CC1 |
| inactive | Cn1nc(/C=C/c2ccccc2)ccc1=O |
| inactive | CCN(CC)c1ccc(/C=N/NC(=O)CC(C)C)cc1 |
| inactive | COc1ccc(Nc2cc3n(c(=O)n2)CCc2cc(OC)c(OC)cc2-3)cc1 |
| inactive | O=C(NC1CCCCC1)C(c1ccncc1)n1c(=O)c(-c2ccccc2)nc2ccccc21 (centres undefined) |
| inactive | COCCNC(=O)COC(=O)c1cc(-c2ccc(OC)cc2)nc2ccccc12 |
| 19.7 µM | COc1ccc2cc3cc(C(=O)NCCc4ccc(OC)c(OC)c4)oc3nc2c1 |

| IC50 | SMILES |
| --- | --- |
| inactive | O=C(O)c1ccc2c(=O)n3c(nc2c1)/C(=C/c1ccc(OC(F)F)cc1OC(F)F)CC3 |
| inactive | Cc1ccc2c(c1)COc1c3ccc(C(=O)NCCO)cc3nn1-2 |
| 9.39 µM | Cc1cccn2c(=O)c3cc(C(=O)NC4CCCC4)sc3nc12 |
| inactive | COc1ccc(C(CC(=O)N2CCCCC2)c2c(OC)cc(OC)c3ccc(=O)oc23)cc1 (centres undefined) |
| 18 µM | Cc1cc(NS(=O)(=O)c2ccc(NC(=O)c3cc4c(=O)n5ccccc5nc4s3)cc2)nc(C)n1 |
| inactive | COCc1cc(C)nc(NC2CC(C)(C)NC(C)(C)C2)c1C#N |
| inactive | C=CCN1C(=O)C(CC(=O)O)S/C1=N/N=C/c1ccc(N(CC)CC)cc1 (centres undefined) |
| inactive | CCCCCCc1c(C)c2ccc(OCC(=O)N3CCC[C@H]3C(=O)O)c(C)c2oc1=O |
| 17 µM | CCn1c(=O)c(-c2ccccc2)c(O)c2ccccc21 |
| inactive | COc1ccccc1N1CCN(C(=O)c2cc3c(=O)n4cccc(C)c4nc3s2)CC1 |
| inactive | CCOC(=O)c1cc2c(=O)n3ccccc3nc2n(CCOC)c1=NC(=O)c1ccncc1 |
| inactive | Cc1cccc(C)c1NC(=O)C(C1CC1)n1c(=O)c(-c2ccccc2)nc2ccccc21 (centres undefined) |
| inactive | CCOCCCn1c(=NC(=O)c2cccnc2)c(C(=O)OCC)cc2c(=O)n3ccccc3nc21 |
| 6.88 µM | COc1ccc(-c2cc3ccc(OCc4nn[nH]n4)cc3oc2=O)cc1OC |
| inactive | CCOC(=O)N1CCN(S(=O)(=O)c2ccc3c4c(cccc24)C(=O)N3)CC1 |
| inactive | c1cc2c3c(cccc3c1)-c1cnccc1-2 |
| 17.5 µM | Cc1ccc(Cn2c(=N)c(C(=O)NCCN3CCOCC3)cc3c(=O)n4ccccc4nc32)cc1 |
| inactive | Nc1c2c(=O)oc(-c3ccccc3)cc2nn1-c1ccccc1 |
| inactive | COc1cc2sc(-c3ccc(S(C)(=O)=O)cc3)c(C#CCO)c2cc1OC |
| 10.4 µM | COc1ccc(Cl)cc1NC(=O)Cn1nnc(C(=O)NCc2ccc3c(c2)OCO3)c1N |
| 11.7 µM | CC(=O)Nc1nc(C)c(-c2csc(Nc3ccc(S(N)(=O)=O)cc3)n2)s1 |
| inactive | CCC(=O)N/C(N)=N/c1nc(C)c2cc(OC)ccc2n1 |
| inactive | O=C(NC1CCCCC1)c1cnn2c(C(F)(F)F)cc(-c3ccco3)nc12 |
| inactive | CC(=O)Nc1cc(-c2ccc(N3CCN(C)CC3)cc2)cn2c(-c3ccc(F)cc3)cnc12 |
| inactive | CCN(CC)c1ccc(/C=N/NC(=O)Cc2ccc(OC)c(OC)c2)cc1 |
| inactive | COc1ccc(CCNc2oc(-c3ccco3)nc2C#N)cc1 |

| IC50 | SMILES |
| --- | --- |
| inactive | COc1ccc(-c2cc(C(=O)N(C)CC(=O)Nc3ccccc3Cl)c3ccccc3n2)cc1OC |
| 17.9 µM | Cc1cccn2c(=O)c3cc(C(=O)N4CCN(Cc5ccccc5)CC4)sc3nc12 |
| inactive | Cc1csc(NC(=O)c2cc(=O)[nH]c3ccc(S(=O)(=O)N4CCOCC4)cc23)n1 |
| inactive | COc1cc(OC)cc(-c2oc3cccnc3c2C#CCCO)c1 |
| inactive | Cc1ccc(-c2cc(C(=O)NCCCN3CCOCC3)c3ccccc3n2)cc1 |
| inactive | COc1ccc(OC)c(C=NNC(=O)c2ccccc2NS(=O)(=O)c2cccs2)c1 |
| inactive | COCCN(C(=O)COC(=O)c1cc2ccccc2cc1OC)c1c(N)n(Cc2ccccc2)c(=O)[nH]c1=O |
| inactive | COc1cccc(Cn2cc(/C=N/NC(=O)c3cc(O)cc(O)c3)c3ccccc32)c1 |
| inactive | COc1ccc(OCC(=O)N/N=C/c2ccc(N(C)C)cc2)cc1 |
| > 100 µM (inactive) | COc1ccc(/C=C/c2ccc(=O)n(Cc3ccccc3)n2)cc1 |
| inactive | Cc1ccccc1NC(=O)NNC(=O)c1ccc2ccccc2c1O |
| inactive | Cc1ccc2c(c1)COc1c3ccc(C(=O)NCC4CC4)cc3nn1-2 |
| inactive | O=c1oc2ccccc2cc1-c1cn2cccnc2n1 |
| inactive | COC(=O)c1ccc(C(=O)OC)c(=O)[nH]1 |
| inactive | COc1ccccc1/C=N/NC(=O)c1ccccc1NS(=O)(=O)c1ccc(C)cc1 |
| 19.4 µM | CSc1ccc(/C=C2\CCn3c2nc2cc(C(=O)O)ccc2c3=O)cc1 |
| inactive | COc1ccc(-c2cc(C(=O)N3CCN(c4ccccc4O)CC3)c3ccccc3n2)cc1OC |
| 19.4 µM | COc1cc(F)ccc1-c1cc(C(=O)Nc2ccc(NC(C)=O)cc2)[nH]n1 |
| inactive | CC(C(=O)NCC1CCCO1)N(C(=O)c1snc(C(N)=O)c1N)c1cccc(F)c1 (centres undefined) |
| inactive | CCOc1ccc2[nH]c3ncccc3c(=O)c2c1 |
| 14.9 µM | CCN(CC)c1ccc(/C=N/NC(=O)CNC(=O)c2cccs2)cc1 |
| inactive | COc1ccc(-c2cn3cccnc3n2)cc1NC(=O)c1cccs1 |
| inactive | Nc1c(C(=O)Nc2ccccc2)c2nc3ccccc3nc2n1CCCN1CCOCC1 |
| inactive | C(=C\c1ccc2nncn2c1)/c1ccccc1 |
| inactive | S=c1[nH]c2nc(Cl)c(Cl)nc2[nH]1 |
| 13.2 µM | Cc1cc(NC(=O)COC(=O)c2nccnc2N)n(-c2ccccc2)n1 |

| IC50 | SMILES |
| --- | --- |
| inactive | CCN(/N=C/c1ccc(N(C)C)cc1)c1nc2ccccc2[nH]1 |
| inactive | COc1ccc(C[C@H]2c3cc(O)c(OC)cc3CC[N+]2(C)[O-])cc1O (some centres undefined) |
| inactive | O=C(CSc1cccc2cccnc12)Nc1cc(C(=O)O)cc(C(=O)O)c1 |
| inactive | CCOC(=O)C1CCCN(c2nc3ccccc3nc2NS(=O)(=O)c2ccc(C)cc2)C1 (centres undefined) |
| inactive | COc1ccc(-c2cc(=O)c3cc(O)ccc3o2)cc1 |
| inactive | Cc1nn(C)cc1CN(C)C(=O)c1cc2nc(-c3ccco3)cc(C(F)(F)F)n2n1 |
| inactive | COc1cc2c(cc1OC)-c1cc(NCc3ccccn3)nc(=O)n1CC2 |
| inactive | O=C(Nc1ccc2c(c1)OCO2)c1cc(-c2ccc(O)cc2)on1 |
| inactive | O=C(O)c1sc2cc(C(F)(F)F)cnc2c1-c1cccs1 |
| inactive | COc1cccc(N(C(=O)c2snc(C(N)=O)c2N)C(C(=O)NCc2ccccc2)c2ccc(O)cc2)c1 (centres undefined) |
| inactive | CCOC(=O)CNC(=O)c1sc(NC(=O)c2ccccc2F)nc1C |
| inactive | CCN1CCN(C(=O)c2ccc3nc(-c4ccccc4)c(-c4ccccc4)nc3c2)CC1 |
| inactive | COC(=O)c1nc2cc3c(cc2c(C)c1C(=O)OC)OCO3 |
| inactive | NNC(=O)c1ccc(CSc2cccc3cccnc23)cc1 |
| inactive | CCOc1ccc(C(=O)N/N=C/c2ccc(-c3ccc(S(=O)(=O)Nc4ncccn4)cc3)o2)cc1 |
| inactive | Cc1cc(C)cc(N(CC(=O)NC2CCCC2)C(=O)C2(C)CC(=O)N=C3C=CC=CN32)c1 (centres undefined) |
| > 100 µM (inactive) | Cc1ccc2nc(-c3ccc(NC(=O)COCC(=O)O)cc3)sc2c1 |
| inactive | CCN(CC)CCNC(=O)Cn1c(-c2ccccn2)nc2ccccc21 |
| inactive | CCCCN(C)C(=O)c1cc2cc3ccc(OC)cc3nc2o1 |
| inactive | CC(=O)c1ccc(-c2ccc(C(=O)NCC(c3ccc(F)cc3)N3CCOCC3)o2)cc1 (centres undefined) |
| inactive | COc1ccc(C(C(=O)NCC2CCCO2)N(C(=O)c2snc(C(N)=O)c2N)c2ccccc2)cc1OC (centres undefined) |
| inactive | O=C(O)c1ccc2c(=O)n3c(nc2c1)/C(=C/c1ccc(C(F)(F)F)cc1)CC3 |
| > 100 µM (inactive) | COCc1cc(C)nc2sc(C(=O)Nc3ccc(OC)cc3)c(N)c12 |
| inactive | CSc1ccc(/C=N/n2nnnc2N)cc1 |

| SMILES | IC50 |
| --- | --- |
| C[n+]1ccc(-c2ccccc2)c2ccccc21 | > 100 µM (inactive) |
| CC(=CCOc1ccc2ccc(=O)oc2c1)C1=CC(=O)C(C)(C)O1 | inactive |
